pIC50: −log10 of the molar value.
Biological target: T1, rat NaPi-2b (Rattus norvegicus, UniProt Q9JJ09)
T1 construct: expressed in transfected cells; host or cells: Xenopus oocytes injected with cRNA
T1 sequence (Q9JJ09 1-695): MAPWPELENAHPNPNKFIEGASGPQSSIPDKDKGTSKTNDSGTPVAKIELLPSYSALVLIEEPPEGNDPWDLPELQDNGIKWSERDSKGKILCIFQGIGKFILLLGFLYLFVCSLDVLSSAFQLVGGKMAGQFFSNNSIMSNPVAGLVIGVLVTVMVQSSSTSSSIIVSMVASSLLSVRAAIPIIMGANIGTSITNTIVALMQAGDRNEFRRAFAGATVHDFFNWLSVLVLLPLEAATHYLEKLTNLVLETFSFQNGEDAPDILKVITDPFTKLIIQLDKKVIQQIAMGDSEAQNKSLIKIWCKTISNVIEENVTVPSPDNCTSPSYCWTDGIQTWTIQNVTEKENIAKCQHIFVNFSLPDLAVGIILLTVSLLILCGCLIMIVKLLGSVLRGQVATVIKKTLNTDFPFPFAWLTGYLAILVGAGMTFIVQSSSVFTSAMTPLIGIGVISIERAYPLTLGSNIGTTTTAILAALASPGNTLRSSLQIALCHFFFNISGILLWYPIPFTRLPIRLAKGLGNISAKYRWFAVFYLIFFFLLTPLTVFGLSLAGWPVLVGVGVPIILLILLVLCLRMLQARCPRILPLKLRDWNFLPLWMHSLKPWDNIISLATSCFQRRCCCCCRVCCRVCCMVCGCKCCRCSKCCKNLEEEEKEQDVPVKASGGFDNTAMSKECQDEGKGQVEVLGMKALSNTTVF
Test: Sodium-dependent phosphate uptake of Xenopus oocytes which expressed NaPi-2b (32P)
Assay type: cell-based
Details: for pIC50: Xenopus oocytes expressing rat NaPi-2b, 32P radioactive phosphorus, read-out: IC50 (phosphate uptake inhibitory activity); for inhibition at 300 µM: phosphate uptake, oocytes expressing rat NaPi-2b, determined from inhibition curve
Outline: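 Inhibition at 300 μM and 100 μM was read off one inhibition curve of 32P phosphate uptake. Uptake was measured in Xenopus oocytes cultured 2 days after injection of cRNA for cloned rat NaPi-2b.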

Compound	pIC50	inhibition at 300 µM [%]
O=C(Nc1ccc(Br)cc1C(=O)N/N=C/c1cccc(F)c1)c1ccc(CSCCCO)cc1 [Compound 277, N-[4-Bromo-2-(3-fluoro-benzylidene-hydrazinocarbonyl)-phenyl]-4-(3-hydroxy-propylsulfanylmethyl)-benzamide]	5.80	–
COc1ccc(C(=O)Nc2ccccc2C(=O)N/N=C/c2cc(C)c(O)c(C)c2)cc1OC [Compound 36, N-[2-(4-Hydroxy-3,5-dimethyl-benzylidene-hydrazinocarbonyl)-phenyl]-3,4-dimethoxy-benzamide]	5.39	–
Cc1ccc(/C=N/NC(=O)c2ccsc2NC(=O)c2cccc(CSCCCO)c2)cc1 [Compound 659, 3-(3-Hydroxy-propylsulfanylmethyl)-N-[3-(4-methyl-benzylidene-hydrazinocarbonyl)-thiophen-2-yl]-benzamide]	4.90	–
O=C(Nc1ccc(Br)cc1C(=O)N/N=C/c1ccc(Cl)c(C(F)(F)F)c1)c1cccnc1 [Compound 177, N-[4-Bromo-2-(4-chloro-3-trifluoromethyl-benzylidene-hydrazinocarbonyl)-phenyl]-nicotinamide]	4.58	–
O=C(Nc1ccc(Br)cc1C(=O)N/N=C/c1ccc(Cl)c(C(F)(F)F)c1)c1cccc(CSc2nc[nH]n2)c1 [Compound 272, N-[4-Bromo-2-(4-chloro-3-trifluoromethyl-benzylidene-hydrazinocarbonyl)-phenyl]-3-(1H-[1,2,4]triazol-3-ylsulfanylmethyl)-benzamide]	6.33	–
O=C(Nc1ccccc1C(=O)N/N=C/c1cccnc1)c1ccc(F)cc1 [Compound 113, 4-Fluoro-N-[2-(pyridin-3-ylmethylene-hydrazinocarbonyl)-phenyl]-benzamide]	4.75	–
Cc1csc(NC(=O)c2cccc(CN3CCC(N4CCCCC4)CC3)c2)c1C(=O)N/N=C/c1ccc(F)cc1 [Compound 571, 3-[1,4′]Bipiperidinyl-1′-ylmethyl-N-[3-(4-fluoro-benzylidene-hydrazinocarbonyl)-4-methyl-thiophen-2-yl]-benzamide]	5.28	–
CCN(CC)CCN(C)Cc1cccc(C(=O)Nc2sc3c(c2C(=O)N/N=C/c2ccc(C)c(C)c2)CCCC3)c1 [Compound 609, 3-{[(2-Diethylamino-ethyl)-methyl-amino]-methyl}-N-[3-(3,4-dimethyl-benzylidene-hydrazinocarbonyl)-4,5,6,7-tetrahydro-benzo[b]thiophen-2-yl]-benzamide]	> 6.52	–
CCN(CC)CCN(C)Cc1cccc(C(=O)Nc2sc3c(c2C(=O)N/N=C/c2ccc(F)cc2)CCCC3)c1 [Compound 611, 3-{[(2-Diethylamino-ethyl)-methyl-amino]-methyl}-N-[3-(4-fluoro-benzylidene-hydrazinocarbonyl)-4,5,6,7-tetrahydro-benzo-[b]thiophen-2-yl]-benzamide]	5.67	–
O=C(Nc1ccccc1C(=O)N/N=C/c1cccc(F)c1)c1ccccc1 [Compound 226, N-[2-(3-Fluoro-benzylidene-hydrazinocarbonyl)-phenyl]-benzamide]	5.77	–
CCN(CCO)Cc1cccc(C(=O)Nc2ccc(Cl)cc2C(=O)N/N=C/c2cccc(C)c2)c1 [Compound 424, N-[4-Chloro-2-(3-methyl-benzylidene-hydrazinocarbonyl)-phenyl]-3-{[ethyl-(2-hydroxy-ethyl)-amino]-methyl}-benzamide]	5.75	–
COc1ccc(/C=N/NC(=O)c2cc(Br)ccc2NC(=O)c2ccc(OC)c(OC)c2)cc1OC [Compound 127, N-[4-Bromo-2-(3,4-dimethoxy-benzylidene-hydrazinocarbonyl)-phenyl]-3,4-dimethoxy-benzamide]	4.94	–
Cc1cccc(/C=N/NC(=O)c2cc(Br)ccc2NC(=O)c2ccc(CN3CCN(CCO)CC3)cc2)c1 [Compound 318, N-[4-Bromo-2-(3-methyl-benzylidene-hydrazinocarbonyl)-phenyl]-4-[4-(2-hydroxy-ethyl)-piperazin-1-ylmethyl]-benzamide]	5.60	–
CCN(CC)CCN(Cc1cccc(C(=O)Nc2sc3c(c2C(=O)N/N=C/c2ccc(Cl)c(C(F)(F)F)c2)CCCC3)c1)C(C)=O [Compound 656, 3-{[Acetyl-(2-diethylamino-ethyl)-amino]-methyl}-N-[3-(4-chloro-3-trifluoromethyl-benzylidene-hydrazinocarbonyl)-4,5,6,7-tetrahydro-benzo[b]thiophen-2-yl]-benzamide]	5.53	–
Cc1cccc(/C=N/NC(=O)c2ccccc2NC(=O)c2cccnc2)c1 [Compound 131, N-[2-(3-Methyl-benzylidene-hydrazinocarbonyl)-phenyl]-nicotinamide]	–	32.4
Cc1ccc(CNNC(=O)c2cc(Cl)ccc2NC(=O)c2cccc(CSCCO)c2)cc1C [Compound 492, N-{4-Chloro-2-[N′-(3,4-dimethyl-benzyl)-hydrazinocarbonyl]-phenyl}-3-(2-hydroxy-ethylsulfanylmethyl)-benzamide]	> 5.52	–

Further lines, results first:

pIC50	inhibition at 300 µM [%]	Compound
5.95	–	Cc1ccc(/C=N/NC(=O)c2cc3ccccc3cc2NC(=O)c2cccc(CN(CC(C)O)CC(C)O)c2)cc1 (stereo not drawn) [Compound 960, 3-{[Bis-(2-hydroxy-propyl)-amino]-methyl}-N-[3-(4-methyl-benzylidene-hydrazinocarbonyl)-naphthalen-2-yl]-benzamide]
> 6.00	–	CCCN(CCC)c1ccc(NC(=O)c2cccc(CN(C)CCN(CC)CC)c2)c(C(=O)N/N=C/c2ccc(Cl)c(C(F)(F)F)c2)c1 [Compound 911, N-[2-(4-Chloro-3-trifluoromethyl-benzylidene-hydrazinocarbonyl)-4-dipropylamino-phenyl]-3-{[(2-diethylamino-ethyl)-methyl-amino]-methyl}-benzamide]
–	39.7	CC(O)CN(Cc1cccc(C(=O)Nc2ccsc2C(=O)N/N=C/c2ccc(Cl)c(C(F)(F)F)c2)c1)CC(C)O (stereo not drawn) [Compound 993, 3-{[Bis-(2-hydroxy-propyl)-amino]-methyl}-N-[2-(4-chloro-3-trifluoromethyl-benzylidene-hydrazinocarbonyl)-thiophen-3-yl]-benzamide]
5.87	–	CCN(CC)CCN(C)Cc1cccc(C(=O)Nc2ccc(N3CCOCC3)cc2C(=O)N/N=C/c2ccc(Cl)c(C(F)(F)F)c2)c1 [Compound 1075, N-[2-(4-Chloro-3-trifluoromethyl-benzylidene-hydrazinocarbonyl)-4-morpholin-4-yl-phenyl]-3-{[(2-diethylamino-ethyl)-methyl-amino]-methyl}-benzamide]
5.89	–	COc1ccc(/C=N/NC(=O)c2cc(Cl)ccc2NC(=O)c2cccc(CSCC(O)CO)c2)cc1 (stereo not drawn) [Compound 1011, N-[4-Chloro-2-(4-methoxy-benzylidene-hydrazinocarbonyl)-phenyl]-3-(2,3-dihydroxy-propylsulfanylmethyl)-benzamide]
–	85.1	CCSCCNCc1ccc(C(=O)Nc2ccc(Br)cc2C(=O)N/N=C/c2cccc(OC)c2)cc1 [Compound 771, N-[4-Bromo-2-(3-methoxy-benzylidene-hydrazinocarbonyl)-phenyl]-4-[(2-ethylsulfanyl-ethylamino)-methyl]-benzamide]
> 6.52	–	O=C(Nc1ccc(N2CCCCC2)cc1C(=O)N/N=C/c1ccc(Cl)c(C(F)(F)F)c1)c1cccc(CN2CCC(O)CC2)c1 [Compound 874, N-[2-(4-Chloro-3-trifluoromethyl-benzylidene-hydrazinocarbonyl)-4-piperidin-1-yl-phenyl]-3-(4-hydroxy-piperidin-1-ylmethyl)-benzamide]
5.93	–	CCN(CC)CCN(CCN(CC)CC)Cc1cccc(C(=O)Nc2ccc(N3CCCCC3)cc2C(=O)N/N=C/c2ccc(C)c(C)c2)c1 [Compound 905, 3-{[Bis-(2-diethylamino-ethyl)-amino]-methyl}-N-[2-(3,4-dimethyl-benzylidene-hydrazinocarbonyl)-4-piperidin-1-yl-phenyl]-benzamide]
3.86	–	COc1ccc(C(=O)Nc2ccc(N3CCCCC3)cc2C(=O)N/N=C/c2ncc[nH]2)cc1OC [Compound 937, N-[2-(1H-Imidazol-2-ylmethylene-hydrazinocarbonyl)-4-piperidin-1-yl-phenyl]-3,4-dimethoxy-benzamide]
5.04	–	CCN(CC)CCN(C)Cc1cccc(C(=O)Nc2sc3c(c2C(=O)N/N=C(\C)c2cccc(F)c2)CCCC3)c1 [Compound 1003, 3-{[(2-Diethylamino-ethyl)-methyl-amino]-methyl}-N-{3-[1-(3-fluoro-phenyl)-ethylidene-hydrazinocarbonyl]-4,5,6,7-tetrahydro-benzo[b]thiophen-2-yl}-benzamide]
4.41	–	CCN(CC)CCN(C)Cc1cccc(C(=O)Nc2ccc(OCCOCCOC)cc2C(=O)N/N=C/c2ccc(OC)cc2)c1 [Compound 1037, 3-{[(2-Diethylamino-ethyl)-methyl-amino]-methyl}-N-{2-(4-methoxy-benzylidene-hydrazinocarbonyl)-4-[2-(2-methoxy-ethoxy)-ethoxy]-phenyl}-benzamide]
